Test results as given in patent US11419875B2, “Compounds and compositions for treating hematological disorders” (Aurigene Discovery Technologies Limited, priority 2017, dated 2022).

What was measured:
[1] = test system: MV4-11 cells; experiment: MV4-11 CellTiter Glo cell viability/proliferation assay (Example 2); format: cell-based; conditions: Homo sapiens, 72 hours, CellTiter Glo, read-out: MV4-11 IC50
Method: The CellTiter Glo Luminescent cell viability assay is a highly sensitive homogenous assay to determine the number of viable cells in culture based on quantitation of ATP levels in metabolically active cells. Addition of CTG reagent results in cell lysis and generation of a luminescent signal proportional to the amount of ATP present. The amount of ATP is proportional to the number of cells present. The luminescence is measured using a multilabel reader capable of measuring luminescence. An increase or decrease in cell numbers results in a concomitant change in luminescene level, indicating the effect of the test material on cellular proliferation.
CellTiter-Glo buffer was thawed and equilibrated to room temperature. Lyophilized CellTiter-Glo substrate was brought to room temperature. CTG reagent is prepared by mixing the CellTiter-Glo buffer (Promega Cat #G7572) into an amber bottle containing CellTiter-Glo substrate to reconstitute the lyophilized enzyme/substrate mixture. Both Buffer and the lyophilized substrate are supplied with the kit.
Add 1% Penicillin Streptomycin and 10% FBS to commercially available liquid IMDM (Iscove's Modified Dulbecco's Medium, Invitrogen Cat #12440046).
1. MV4-11 cells were counted and re-suspended to a density of 0.1×10^6 cells/ml in complete IMDM medium. 95 μL of this cell suspension was added per well of a 96-well plate (black plate with clear bottom) to seed ˜0.1×10^5 cells per well. The plates were incubated at 37° C. under a humidified atmosphere of 5% CO2 for ˜2 hours before compound addition. 2. Test compounds were dissolved in 100% DMSO to generate a 2/6/10/20 mM stock solution. A 200× concentration of the required final concentrations was prepared in DMSO. 10 μL of each concentration (200×) was then diluted in 90 μL of serum-free IMDM to prepare an intermediate concentration of 20× in medium. The DMSO concentration in this step was 10% (Intermediate dilution). 5 μL of each intermediate dilution was then added in triplicates to cells previously seeded in 96-well plate. The final DMSO concentration was 0.5% in the experimental wells. Cells treated with 0.5% DMSO served as a positive control. 100 μL of complete IMDM medium served as media blank for data analysis. 200 μL of 1×PBS was added in all corner wells of the assay plate to avoid evaporation of media in experimental wells. Plates were then incubated for 72 hours in an incubator with 5% CO2 at 37° C. 3. To terminate the assay, 50 μL of CTG reagent was added to each well and the plate was incubated at room temperature for 15 minutes on a shaker. The plate was read using the luminescence mode on a multilabel reader capable of measuring luminescence. The luminescence values were plotted against respective concentrations of the test item using GraphPad Prism to calculate the IC50 value for the test item. Percent Inhibition is Calculated as Follows: […]
Positive control wells contained cells, IMDM medium and 0.5% DMSO. Blank control wells contained IMDM medium alone.

[2] = test system: MV4-11 cells; experiment: AML xenograft model MV4-11, in vivo tumor growth inhibition; conditions: 21 days
Method: ND-2158 at 100 mpk was used as a control.
MV4-11 cells were grown in Iscove's Modified Dulbecco's medium supplemented with 10% FBS and 1% penicillin streptomycin. To establish tumors, 15×10^6 MV4-11 cells were injected subcutaneously in 200 μl of 1:1 HBSS and ECM gel into the right flank of the athymic nude mice. Animals were randomized based on tumor volumes. […] Treatments were initiated when the average tumor volume sizes were 333 mm^3. Tumor volumes were measured three times a week and body weights were monitored daily.

SMILES	IC50 [1]	other results
O=C(Nc1cc2oc(N3CCOCC3)nc2nc1N1CCCCC1)c1cccc(-c2cn[nH]c2)n1	< 50 nM	–
Nc1ccc(-c2cccc(C(=O)Nc3cc4sc(N5CCOCC5)nc4cn3)n2)cn1	50 to 500 nM	–
Cc1cc(-c2nc(C(=O)Nc3cc4oc(N5CCOCC5)nc4nc3N3CC[C@H](O)C3)co2)ccn1	< 50 nM	–
N[C@H]1CCN(c2cccc(C(=O)Nc3cc4sc(N5CCOCC5)nc4nc3N3CCCCC3)n2)C1	> 500 nM	–
N[C@H]1CCN(c2cccc(C(=O)Nc3cc4sc(N5CCCCC5)nc4nc3N3CCCCC3)n2)C1	> 500 nM	–
O=C(Nc1cc2sc(N3CCCCC3)nc2nc1N1CCCCC1)c1cccc(N2CC[C@H](O)C2)n1	> 500 nM	–
Cc1cc(-c2nc(C(=O)Nc3cc4sc(N5CCOCC5)nc4nc3N3CC[C@H](O)C3)co2)ccn1	< 50 nM	–
C[C@H](O)Cn1cc(-c2cccc(C(=O)Nc3cc4sc(N5CCOCC5)nc4nc3C3CC3)n2)cn1	< 50 nM	–
Cc1cc(-c2nc(C(=O)Nc3cc4sc(N5CCOCC5)nc4nc3N3CC[C@@H](O)C3)co2)ccn1	< 50 nM	–
C[C@H](O)Cn1cc(-c2cccc(C(=O)Nc3cc4sc(N5CCOCC5)nc4nc3N3CCCCC3)n2)cn1	< 50 nM	–
Cc1nn(C)c2cc(N3CCC(CO)CC3)c(NC(=O)c3coc(-c4ccnc(N)c4)n3)cc12	< 50 nM	–
Cc1cc(-c2nc(C(=O)Nc3cc4cn(C)nc4cc3C3CC3)co2)ccn1	< 50 nM	–
C[C@H](O)Cn1cc(-c2cccc(C(=O)Nc3cc4cn(C)nc4cc3N3CCCCC3)n2)cn1	< 50 nM	–
NC(=O)[C@@H](O)C[C@H]1CCc2sc3ncnc(OC4CCC(N5CCOCC5)CC4)c3c21 (stereo partly shown) [ND-2158, reference compound]	–	tolerability (clinical signs, gross pathological changes) ([2]; 100 mg/kg i.p. once daily): well tolerated without any treatment related clinical signs and gross pathological changes; tumor growth inhibition ([2]; 100 mg/kg i.p. once daily): 68%; body weight ([2]; all treatment groups, FIG. 4): No body weight reduction was observed
Cc1cc(-c2nc(C(=O)Nc3cc4oc(N5CCOCC5)nc4nc3N3CC[C@@H](O)C3)co2)ccn1 [drawing 32]	< 50 nM	–

Further lines, with some results ahead:

IC50 [1]	SMILES	other results
> 500 nM	Nc1ccc(-c2cccc(C(=O)Nc3cc4oc(N5CCOCC5)nc4nc3C3CC3)n2)cn1	–
< 50 nM	O=C(Nc1cc2oc(N3CCCCC3)nc2nc1N1CCCCC1)c1cccc(-c2cn[nH]c2)n1	–
< 50 nM	Cc1cc(-c2nc(C(=O)Nc3cnc4nc(N5CCOCC5)sc4c3)co2)ccn1	–
> 500 nM	Nc1ccc(-c2cccc(C(=O)Nc3cnc4nc(N5CCOCC5)sc4c3)n2)cn1	–
50 to 500 nM	O=C(Nc1cc2sc(N3CCCCC3)nc2nc1N1CCCCC1)c1cccc(-c2cn[nH]c2)n1	–
> 500 nM	O=C(Nc1cc2oc(N3CCOCC3)nc2nc1N1CCCCC1)c1cccc(N2CC[C@H](O)C2)n1	–
< 50 nM	Cn1cc(-c2cccc(C(=O)Nc3cc4sc(N5CCCCC5)nc4nc3N3CCCCC3)n2)cn1	–
< 50 nM	Cn1cc(-c2cccc(C(=O)Nc3cc4sc(N5CCOCC5)nc4nc3N3CCCCC3)n2)cn1	–
> 500 nM	O=C(Nc1cc2sc(N3CCOCC3)nc2nc1N1CCCCC1)c1cccc(N2CC[C@H](O)C2)n1	–
< 50 nM	Cc1cc(-c2nc(C(=O)Nc3cc4sc(N5CCOCC5)nc4nc3C3CC3)co2)ccn1	–
< 50 nM	O=C(Nc1cc2sc(N3CCOCC3)nc2nc1N1CCCCC1)c1coc(N2CC[C@H](O)C2)n1	–
> 500 nM	O=C(Nc1cc2sc(N3CCOCC3)nc2nc1C1CC1)c1cccc(N2CC[C@H](O)C2)n1	–
> 500 nM	O=C(Nc1cc2sc(N3CCOCC3)nc2nc1N1CCC1)c1cccc(N2CC[C@H](O)C2)n1	–
< 50 nM	Nc1ccc(-c2cccc(C(=O)Nc3cc4cn(C5CCCC5)nc4cc3N3CCOCC3)n2)cn1	–
< 50 nM	Cc1ccc(C(=O)Nc2cc3cn(C)nc3cc2N2CCCCC2)nc1-c1ccc(N)nc1	–
< 50 nM	Cc1ccc(C(=O)Nc2cc3cn(C)nc3cc2N2CCCCC2)nc1-c1cnn(C)c1	–
> 500 nM	Cn1cc2cc(NC(=O)c3cccc(N4CC[C@@H](O)C4)n3)c(N3CCCCC3)cc2n1	–
50 to 500 nM	Cn1cc2cc(NC(=O)c3cccc(N4CC[C@H](O)C4)n3)c(N3CCCCC3)cc2n1	–
50 to 500 nM	Cn1cc2cc(NC(=O)c3cccc(N4CCC(O)C4)n3)c(N3CCCCC3)cc2n1 (stereo not shown)	–
< 50 nM	C[C@H](O)Cn1cc(-c2cccc(C(=O)Nc3cc4cn(C)nc4cc3C3CC3)n2)cn1	–
